In PubChem BioAssay (NCI):
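Tested at 5 concentrations; 48 h exposure; 96-well plates; endpoints linearly interpolated, else capped at highest concentration. At the TGI there is no net growth.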

Experiments:
Assay in all cases: NCI tumour cell line growth inhibition, 48 h
786-0 renal = test system: 786-0 renal
A549 NSCLC = test system: A549 NSCLC
ACHN renal = test system: ACHN renal
CAKI-1 renal = test system: CAKI-1 renal
DLD-1 colon = test system: DLD-1 colon
DMS 114 small cell lung = test system: DMS 114 small cell lung
EKVX NSCLC = test system: EKVX NSCLC
HCC-2998 colon = test system: HCC-2998 colon
HCT-116 colon = test system: HCT-116 colon
HCT-15 colon = test system: HCT-15 colon
HOP-18 NSCLC = test system: HOP-18 NSCLC
HOP-92 NSCLC = test system: HOP-92 NSCLC
HT29 colon = test system: HT29 colon
IGROV1 ovarian = test system: IGROV1 ovarian
K-562 leukemia = test system: K-562 leukemia
KM12 colon = test system: KM12 colon
KM20L2 colon = test system: KM20L2 colon
LXFL 529 NSCLC = test system: LXFL 529 NSCLC
M14 melanoma = test system: M14 melanoma
MALME-3M melanoma = test system: MALME-3M melanoma
MOLT-4 leukemia = test system: MOLT-4 leukemia
NCI-H226 lung = test system: NCI-H226 lung
NCI-H23 lung = test system: NCI-H23 lung
NCI-H460 lung = test system: NCI-H460 lung
NCI-H522 lung = test system: NCI-H522 lung
OVCAR-3 ovarian = test system: OVCAR-3 ovarian
OVCAR-4 ovarian = test system: OVCAR-4 ovarian
OVCAR-5 ovarian = test system: OVCAR-5 ovarian
OVCAR-8 ovarian = test system: OVCAR-8 ovarian
RPMI-8226 leukemia = test system: RPMI-8226 leukemia
RXF 393 renal = test system: RXF 393 renal
RXF-631 renal = test system: RXF-631 renal
SF-295 CNS = test system: SF-295 CNS
SF-539 CNS = test system: SF-539 CNS
SK-MEL-2 melanoma = test system: SK-MEL-2 melanoma
SK-MEL-28 melanoma = test system: SK-MEL-28 melanoma
SK-MEL-5 melanoma = test system: SK-MEL-5 melanoma
SK-OV-3 ovarian = test system: SK-OV-3 ovarian
SN12C renal = test system: SN12C renal
SNB-19 CNS = test system: SNB-19 CNS
SNB-75 CNS = test system: SNB-75 CNS
SNB-78 CNS = test system: SNB-78 CNS
SR leukemia = test system: SR leukemia
SW-620 colon = test system: SW-620 colon
TK-10 renal = test system: TK-10 renal
U251 CNS = test system: U251 CNS
UACC-257 melanoma = test system: UACC-257 melanoma
UACC-62 melanoma = test system: UACC-62 melanoma
UO-31 renal = test system: UO-31 renal
XF 498 CNS = test system: XF 498 CNS
A498 renal = test system: A498 renal
CCRF-CEM leukemia = test system: CCRF-CEM leukemia
COLO 205 colon = test system: COLO 205 colon
DMS 273 small cell lung = test system: DMS 273 small cell lung
HL-60(TB) leukemia = test system: HL-60(TB) leukemia
HOP-62 NSCLC = test system: HOP-62 NSCLC
LOX IMVI melanoma = test system: LOX IMVI melanoma
M19-MEL melanoma = test system: M19-MEL melanoma
SF-268 CNS = test system: SF-268 CNS

Work on `CC(=O)OC1CCn2nnc(COC(=O)NC(C)C)c21` (stereo unspecified) yielded a TGI (786-0 renal) greater than 100 µM, a TGI (A549 NSCLC) greater than 100 µM and a TGI (ACHN renal) greater than 100 µM. The TGI (CAKI-1 renal) was greater than 100 µM, the TGI (DLD-1 colon) was greater than 100 µM and the TGI (DMS 114 small cell lung) was greater than 100 µM. For the same molecule, the TGI (EKVX NSCLC) was greater than 100 µM, the TGI (HCC-2998 colon) was greater than 100 µM and the TGI (HCT-116 colon) was greater than 100 µM. It also gave a TGI (HCT-15 colon) greater than 100 µM, a TGI (HOP-18 NSCLC) greater than 100 µM and a TGI (HOP-92 NSCLC) greater than 100 µM. For the same molecule, the TGI (HT29 colon) was greater than 100 µM, the TGI (IGROV1 ovarian) was greater than 100 µM and the TGI (K-562 leukemia) was greater than 100 µM. The TGI (KM12 colon) was greater than 100 µM, the TGI (KM20L2 colon) was greater than 100 µM and the TGI (LXFL 529 NSCLC) was greater than 100 µM. It also gave a TGI (M14 melanoma) greater than 100 µM, a TGI (MALME-3M melanoma) greater than 100 µM and a TGI (MOLT-4 leukemia) greater than 100 µM. It also gave a TGI (NCI-H226 lung) greater than 100 µM, a TGI (NCI-H23 lung) greater than 100 µM and a TGI (NCI-H460 lung) greater than 100 µM. It also gave a TGI (NCI-H522 lung) greater than 100 µM, a TGI (OVCAR-3 ovarian) greater than 100 µM and a TGI (OVCAR-4 ovarian) greater than 100 µM. For the same molecule, the TGI (OVCAR-5 ovarian) was greater than 100 µM, the TGI (OVCAR-8 ovarian) was greater than 100 µM and the TGI (RPMI-8226 leukemia) was greater than 100 µM. It also gave a TGI (RXF 393 renal) greater than 100 µM, a TGI (RXF-631 renal) greater than 100 µM and a TGI (SF-295 CNS) greater than 100 µM. The TGI (SF-539 CNS) was greater than 100 µM, the TGI (SK-MEL-2 melanoma) was greater than 100 µM and the TGI (SK-MEL-28 melanoma) was greater than 100 µM. The TGI (SK-MEL-5 melanoma) was greater than 100 µM, the TGI (SK-OV-3 ovarian) was greater than 100 µM and the TGI (SN12C renal) was greater than 100 µM. For the same molecule, the TGI (SNB-19 CNS) was greater than 100 µM, the TGI (SNB-75 CNS) was greater than 100 µM and the TGI (SNB-78 CNS) was greater than 100 µM. The TGI (SR leukemia) was greater than 100 µM, the TGI (SW-620 colon) was greater than 100 µM and the TGI (TK-10 renal) was greater than 100 µM. It also gave a TGI (U251 CNS) greater than 100 µM, a TGI (UACC-257 melanoma) greater than 100 µM and a TGI (UACC-62 melanoma) greater than 100 µM. For the same molecule, the TGI (UO-31 renal) was greater than 100 µM and the TGI (XF 498 CNS) was greater than 100 µM.
`Cc1c(C(=O)/C=C/c2ccc(Cl)cc2)[n+](=O)c2ccccc2n1[O-]` showed a TGI (786-0 renal) of 27.4 µM, a TGI (A498 renal) of 29.2 µM and a TGI (A549 NSCLC) of 33.6 µM. For the same molecule, the TGI (ACHN renal) was 29.6 µM, the TGI (CAKI-1 renal) was 31.6 µM and the TGI (CCRF-CEM leukemia) was greater than 100 µM. The TGI (COLO 205 colon) was 27.1 µM, the TGI (DLD-1 colon) was 20.4 µM and the TGI (DMS 114 small cell lung) was 15.1 µM. For the same molecule, the TGI (DMS 273 small cell lung) was 25.4 µM, the TGI (EKVX NSCLC) was 31.2 µM and the TGI (HCC-2998 colon) was 24.5 µM. For the same molecule, the TGI (HCT-116 colon) was 18.5 µM, the TGI (HCT-15 colon) was 24.1 µM and the TGI (HL-60(TB) leukemia) was 35.2 µM. The TGI (HOP-18 NSCLC) was 57.7 µM, the TGI (HOP-62 NSCLC) was 63.5 µM and the TGI (HOP-92 NSCLC) was 37.7 µM. The TGI (HT29 colon) was 28.2 µM, the TGI (IGROV1 ovarian) was 39.4 µM and the TGI (K-562 leukemia) was 52.9 µM. The TGI (KM12 colon) was 22.7 µM, the TGI (KM20L2 colon) was 21.4 µM and the TGI (LOX IMVI melanoma) was 20.5 µM. For the same molecule, the TGI (LXFL 529 NSCLC) was 22.5 µM, the TGI (M14 melanoma) was 31.5 µM and the TGI (M19-MEL melanoma) was 30 µM. It also gave a TGI (MALME-3M melanoma) of 38.1 µM, a TGI (MOLT-4 leukemia) of 45.6 µM and a TGI (NCI-H226 lung) of 33.7 µM. For the same molecule, the TGI (NCI-H23 lung) was 22.2 µM, the TGI (NCI-H460 lung) was 29.1 µM and the TGI (NCI-H522 lung) was 17 µM. The TGI (OVCAR-3 ovarian) was 27.4 µM, the TGI (OVCAR-4 ovarian) was 28.3 µM and the TGI (OVCAR-5 ovarian) was 28.3 µM. It also gave a TGI (OVCAR-8 ovarian) of 23.3 µM, a TGI (RPMI-8226 leukemia) of 42.4 µM and a TGI (RXF 393 renal) of 17.9 µM. It also gave a TGI (RXF-631 renal) greater than 100 µM, a TGI (SF-268 CNS) of 28.6 µM and a TGI (SF-295 CNS) of 27.1 µM. The TGI (SF-539 CNS) was 25.7 µM, the TGI (SK-MEL-28 melanoma) was 32.6 µM and the TGI (SK-OV-3 ovarian) was 47.6 µM. It also gave a TGI (SN12C renal) of 23.3 µM, a TGI (SNB-19 CNS) of 27.8 µM and a TGI (SNB-75 CNS) of 40.7 µM. The TGI (SNB-78 CNS) was greater than 100 µM, the TGI (SR leukemia) was 73.1 µM and the TGI (SW-620 colon) was 21.9 µM. The TGI (TK-10 renal) was 35.5 µM, the TGI (U251 CNS) was 26.3 µM and the TGI (UACC-257 melanoma) was 30.4 µM. For the same molecule, the TGI (UACC-62 melanoma) was 26.8 µM and the TGI (UO-31 renal) was 29.9 µM.
